Experimental data as given in patent publication US4585795A, “Control agent for protecting timber against fungi employing a mixture of an organic carboxylic acid salt and quaternary ammonium salt” (priority 1982, dated 1986).
In brackets after ≈: the same amount, converted by molar mass. Several values for one entry are separate records, joined by “and”; a condition that tells them apart may be missing. Equal entries are not always repeated. Entries after “also recorded” stand apart in the source; their conditions may differ. Structures can show the parent of a compound that is named as a salt. Where two headings read alike, the source gives them in different places.

Key:
[1] = known organic acids used as control agents; cited from earlier work
[2] = tested on: Aureobasidium pullulans; assay: dish cultures, growth inhibition of A. pullulans (Czapek-Dox agar); type: cell-based; details: 360 h
Protocol: Laboratory experiments were carried out by making (1) dish cultures with Czapek-Dox agar at a temperature of 23° C. and (2) mini-board tests at a temperature of 23° C. and a humidity of 100%. The dish cultures had been inoculated with spores of the fungus Aureobasidium pullulans. This is a known fungus causing sapstain. In the mini-board tests, the inoculation was carried out using a spore suspension which contained a mixture of the spores of sapstain fungi. The sapstain fungi used were Aureobasidium pullulans, Sclerophoma entoxylina and Ceratocystis pilifera. […]
In dish cultures with A. pullulans fungus it was observed that growth was inhibited at, for example, the following concentrations of the control agents studied within a culture period of 15 days:
Using certain mixtures of these control agents, fungus growth could be inhibited at the following concentrations, for example: […]

[3] = tested on: surface mildew; assay: mini-board test on timber, surface mildew; details: Example 2; 1.2% active ingredient in wetting solution, pH 8.4, fresh timber, 23° C., 1 month; 0-5 very good, 6-10 average, 11-15 poor, 16-20 very poor
Protocol: (§1) Laboratory experiments were carried out by making (1) dish cultures with Czapek-Dox agar at a temperature of 23° C. and (2) mini-board tests at a temperature of 23° C. and a humidity of 100%. The dish cultures had been inoculated with spores of the fungus Aureobasidium pullulans. This is a known fungus causing sapstain. In the mini-board tests, the inoculation was carried out using a spore suspension which contained a mixture of the spores of sapstain fungi. The sapstain fungi used were Aureobasidium pullulans, Sclerophoma entoxylina and Ceratocystis pilifera.
(§2) In the mini-board tests it was studied whether the toxic effect is retained on the surface of timber. The dimensions of the mini-boards were 10×50×300 mm. They had been made from newly felled pine. The pieces were immersed for 20 s into the solutions studied and were then weighed and inoculated. The control pieces were immersed into pure water. Some of the test pieces were dried for 1 month at 23° C. at a humidity of 100% in dishes covered with a plastic sheet, whereafter the sapstain and the mildew growth in them were assessed visually.
(§3) The control agent composition presented in Test 4 of Example 3 was modified in such a way that part of the dodecylbenzyldimethylammonium chloride was replaced with technical dialkyldimethylammonium chloride which contained, bound with nitrogen, C8 -C18 alkyl groups as follows: […], C10 -9%, C12 -47%, C14 -18%, C16 -8% and C18 -10%.

[4] = tested on: sapstain fungi (Aureobasidium pullulans, Sclerophoma entoxylina, Ceratocystis pilifera); assay: mini-board test on timber, sapstain; details: for Grading points, Sapstain: Example 2, 1.2% active ingredient in wetting solution, pH 8.4, fresh timber, 23° C., 1 month, 0-5 very good, 6-10 average, 11-15 poor, 16-20 very poor; for synergism with Na-2-ethylhexanoate (in words): examples 2, 5, 6 and 12
Protocol: as §1, §2, §3

[5] = tested on: sapstain fungi (Aureobasidium pullulans, Sclerophoma entoxylina, Ceratocystis pilifera); assay: mini-board one-side immersion test, sapstain (DDC / 2-EHA-Na); details: 3 weeks, 23° C.
Protocol: as §1
[…] The immersion period was 20 s. The boards were allowed to drip, and they were inoculated with the above-mentioned spore suspension of sapstain fungi.

[6] = tested on: mildew fungi (Cladosporium sphaerospermum, Penicillum Sp., Aspergillus amstelodami); assay: mini-board one-side immersion test, mildew growth (DDC / 2-EHA-Na); details: Example 6; dry matter of wetting solution 1.5%
Protocol: The concentration of the solution was 2.5%. The immersion period was 20 s. The boards were allowed to drip, and they were inoculated with the above-mentioned spore suspension of sapstain fungi.
The following experiment was carried out as in Example 5, but a suspension of spores of the mildew fungi listed below was used for the inoculations:
(§4) Cladosporium sphaerospermum

[7] = tested on: sapstain fungi; assay: miniboard test, sapstain (Examples 8-12); details: for Growth of fungi, Sapstain (score): Example 12, pH 10
Protocol: as §1
(§5) The other half of the miniboards was dipped into the control agent solutions for 20 seconds. […] The pH was 8.5-10.0. The board were allowed to drip and they were inoculated with the above mentioned spore suspensions of sapstain and mold fungi. The boards were stored at 100% relative humidity (R.H.) at 20° C. They were inspected and visually rated after 3 weeks incubation time.
(§6) 1--some traces of fungal growth
(§7) 2--several colonies of growing fungi
(§8) 3--25% of the surface discoloured
(§9) 4--50% of the surface discoloured
(§10) The miniboards were inspected and rated after 3 weeks incubation time at 20° C. and 100% R.H. Results are presented in tables 3 and 4 as the average score of ten replicate samples.
(§11) Results are presented in tables 5-7 as the average score of ten replicate samples.
(§12) The miniboards were treated as in foregoing examples but the treatment solution contained dioctyldimethylammonium chloride instead of trimethylcocoammonium chloride.

[8] = tested on: mold fungi; assay: miniboard test, molds (surface mildew) (Examples 8-12); details: for Growth of fungi, Freshly cut pine sapwood, Molds (score): average of ten replicates; for synergism with trimethylcoco ammonium chloride (in words): mold tests, Examples 8-11; for Growth of fungi, Molds (score): Example 12, pH 10
Protocol: as §4, §5, §6, §7, §8, §9, §10, §11, §12

[9] = tested on: mold fungi; assay: as above; details: TABLE 2; […] active ingredients, pH 8.5-10.0, 5 weeks, 20° C., 100% R.H.; average of ten replicates
[10] = tested on: sapstain fungi; assay: miniboard test, sapstain (Examples 8-12); details: TABLE 2; […] active ingredients, pH 8.5-10.0, 5 weeks, 20° C., 100% R.H.; average of ten replicates
[11] = pH 2.5, 15 days culture, single agents, read-out: concentration at which growth was inhibited
[12] = pH 5.0, 15 days culture, single agents, read-out: concentration at which growth was inhibited
[13] = pH 7.0, 15 days culture, single agents, read-out: concentration at which growth was inhibited
[14] = Example 5, Test 1, dry matter of wetting solution 1.5%
[15] = Example 5, Test 2, dry matter of wetting solution […]
[16] = pH 2.5, read-out: concentration at which growth was inhibited
[17] = pH 5, read-out: concentration at which growth was inhibited
[18] = pH 7, read-out: concentration at which growth was inhibited
[19] = TABLES 3-4, […] active ingredients, pH 8.5-10.0, 3 weeks, 20° C., 100% R.H., average of ten replicates
[20] = TABLES 3-4, […] active ingredients, pH 8.5-10.0, 3 weeks, 20° C., 100% R.H.
[21] = TABLE 1, […] active ingredients, pH 8.5-10, 3 weeks, brackets not explained
[22] = TABLES 5-7, […] active ingredients, pH 8.5-10.0, rated as in examples 9-10, average of ten replicates
[23] = TABLES 5-7, […] active ingredients, pH 8.5-10.0, rated as in examples 9-10

C/C=C/C=C/C(=O)O [Sorbic acid]
pKa [1]: 4.77
MIC [2, 11]: 50 µg/mL (≈ 446 µM)
MIC [2, 12]: 100 µg/mL (≈ 892 µM)
MIC [2, 13]: > 100 µg/mL

CCCCCCCCCCCC[n+]1ccccc1 [DPC, dodecylpyridinium chloride]
Grading points, Surface mildew [3]: 16 points
Grading points, Sapstain [4]: 3 points

CCCCCCCCCC[N+](C)(C)CCCCCCCCCC.[Cl-] [DDC, didecyldimethylammonium chloride]
synergism with Na-2-ethylhexanoate (in words) [4]: proved
Grade points, Sapstain, Treated side [5, 14]: 12 points
Grade points, Sapstain, Treated side [5, 15]: 5 points
Grade points, Mildew growth, Treated side [6]: 11 points

CCCCC(CC)C(=O)O (stereo not shown) [2-ethyl hexanoic acid]
pKa [1]: 4.81
MIC [2, 16]: 50 µg/mL (≈ 347 µM)
MIC [2, 17]: > 100 µg/mL
MIC [2, 18]: > 1000 µg/mL

CCCCCC(=O)O [Capronic acid]
pKa [1]: 4.83

CC(=O)Oc1ccccc1C(=O)O [Acetylsalicylic acid]
MIC [2, 16]: 25 µg/mL (≈ 139 µM)
MIC [2, 17]: > 100 µg/mL
MIC [2, 18]: > 1000 µg/mL

CCCCCCCCCC(=O)O [Capric acid]
Grading points, Surface mildew [3]: 14 points
Grading points, Sapstain [4]: 3.5 points
MIC [2, 11]: 50 µg/mL (≈ 290 µM)
MIC [2, 12]: 100 µg/mL (≈ 580 µM)
MIC [2, 13]: > 100 µg/mL

Na-iso-octanoate
Growth of fungi, Freshly cut pine sapwood, Sapstain (score) [7, 19]: 20
Growth of fungi, Freshly cut pine sapwood, Molds (score) [8, 20]: 20
synergism with trimethylcoco ammonium chloride (in words) [8]: not as clear

CCCCCCCCCCCC[N+](C)(C)Cc1ccccc1.[Cl-] [BAC, dodecylbenzyldimethylammonium chloride]
Grading points, Surface mildew [3]: 8.5 points and 4.5 points
Grading points, Sapstain [4]: 2 points and 1.5 points
synergism with Na-2-ethylhexanoate (in words) [4]: proved
MIC [2, 16]: 50 µg/mL
MIC [2, 17]: 10 µg/mL
MIC [2, 18]: 2 µg/mL

CCCCC(CC)C(=O)O (stereo not shown) [Na--2-ethylhexanoate, Na salt of 2-ethyl hexanoic acid]
Growth of fungi, Freshly cut pine sapwood, Molds (surface mildew) (score) [9]: 20
Growth of fungi, Sapstain (score) ([7]; […] active ingredients): 10
Growth of fungi, Freshly cut pine sapwood, Sapstain (score) ([7]; TABLE 1, […] active ingredients, pH 8.5-10, 3 weeks, 20° C., 100% R.H., average of 5 replicates, value without brackets): 20
Growth of fungi, Freshly cut pine sapwood, Sapstain (score), value in square brackets [7, 21]: 2
control of sapstain (in words) ([7]; […] a.i. solution): quite ineffective in controlling mold and stain fungi
Growth of fungi, Freshly cut pine sapwood, Sapstain (score) [10]: 20
Grade points, Sapstain, Treated side [5, 14]: 20 points
Grade points, Sapstain, Treated side [5, 15]: 16 points
Growth of fungi, Molds (score) ([8]; […] active ingredients): 10
Growth of fungi, Freshly cut pine sapwood, Molds (surface mildew) (score), value in square brackets [8, 21]: 2
control of mold growth (in words) ([8]; […] a.i. solution): quite ineffective in controlling mold and stain fungi
synergism with trimethylcoco ammonium chloride (in words) [8]: most obvious
Grade points, Mildew growth, Treated side [6]: 20 points

CCCCCCC(=O)O [Na-heptanoate]
Growth of fungi, Freshly cut pine sapwood, Sapstain (score) [7, 22]: 7
Growth of fungi, Freshly cut pine sapwood, Molds (score) [8, 23]: 20

CCCCCCCCCCCC[N+](C)(C)C.[Cl-] [DMC, dodecyltrimethylammonium chloride]
Grading points, Sapstain [4]: 1 points
MIC [2, 16]: 15 µg/mL
MIC [2, 17]: 15 µg/mL
MIC [2, 18]: 4 µg/mL

CCCCCCCC(=O)O [Na-caprylate]
Growth of fungi, Freshly cut pine sapwood, Sapstain (score) [7, 22]: 10.5
Growth of fungi, Freshly cut pine sapwood, Molds (score) [8, 23]: 20

CCCCCCCCCC(=O)O [Na-caprinoate]
Growth of fungi, Freshly cut pine sapwood, Sapstain (score) [7, 22]: 2.5
Growth of fungi, Freshly cut pine sapwood, Molds (score) [8, 23]: 20

Na-isononanoate
Growth of fungi, Freshly cut pine sapwood, Sapstain (score) [7, 19]: 20
Growth of fungi, Freshly cut pine sapwood, Molds (score) [8, 20]: 20
synergism with trimethylcoco ammonium chloride (in words) [8]: quite obvious; also recorded: most obvious

O=C(O)c1ccccc1 [Benzoic acid]
MIC [2, 16]: 50 µg/mL (≈ 409 µM)
MIC [2, 17]: > 100 µg/mL
MIC [2, 18]: > 100 µg/mL

CCCCCCCC[N+](C)(C)CCCCCCCC.[Cl-] [Dioctyldimethylammonium chloride, dioctyldimethylammonium chloride]
Growth of fungi, Sapstain (score) ([7]; […] active ingredients): 1
synergism with Na-2-ethylhexanoate (in words) [4]: proved
Growth of fungi, Molds (score) ([8]; […] active ingredients): 1.5
